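A five-concentration, 48-hour dose response in 96-well plates underlies each endpoint, interpolated linearly between surrounding concentrations. TGI denotes the concentration required for complete inhibition of growth.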
Tests used:
Assay in all cases: DTP human tumour cell line panel, 48 h
NCI-H23 lung = tested on: NCI-H23 lung
UACC-257 melanoma = tested on: UACC-257 melanoma
MALME-3M melanoma = tested on: MALME-3M melanoma
RXF 393 renal = tested on: RXF 393 renal
HT29 colon = tested on: HT29 colon
M19-MEL melanoma = tested on: M19-MEL melanoma
SK-MEL-5 melanoma = tested on: SK-MEL-5 melanoma
SF-268 CNS = tested on: SF-268 CNS
NCI-H460 lung = tested on: NCI-H460 lung
OVCAR-8 ovarian = tested on: OVCAR-8 ovarian
UO-31 renal = tested on: UO-31 renal
KM20L2 colon = tested on: KM20L2 colon
UACC-62 melanoma = tested on: UACC-62 melanoma
HOP-18 NSCLC = tested on: HOP-18 NSCLC
DMS 114 small cell lung = tested on: DMS 114 small cell lung
SNB-75 CNS = tested on: SNB-75 CNS
ACHN renal = tested on: ACHN renal
SR leukemia = tested on: SR leukemia
LOX IMVI melanoma = tested on: LOX IMVI melanoma
SN12C renal = tested on: SN12C renal
NCI-H226 lung = tested on: NCI-H226 lung
TK-10 renal = tested on: TK-10 renal
A549 NSCLC = tested on: A549 NSCLC
HCT-15 colon = tested on: HCT-15 colon
OVCAR-4 ovarian = tested on: OVCAR-4 ovarian
M14 melanoma = tested on: M14 melanoma
U251 CNS = tested on: U251 CNS
CCRF-CEM leukemia = tested on: CCRF-CEM leukemia
SK-MEL-28 melanoma = tested on: SK-MEL-28 melanoma
HCT-116 colon = tested on: HCT-116 colon
SF-295 CNS = tested on: SF-295 CNS
SK-OV-3 ovarian = tested on: SK-OV-3 ovarian
DMS 273 small cell lung = tested on: DMS 273 small cell lung
RPMI-8226 leukemia = tested on: RPMI-8226 leukemia
K-562 leukemia = tested on: K-562 leukemia
EKVX NSCLC = tested on: EKVX NSCLC
COLO 205 colon = tested on: COLO 205 colon
786-0 renal = tested on: 786-0 renal
SK-MEL-2 melanoma = tested on: SK-MEL-2 melanoma
LXFL 529 NSCLC = tested on: LXFL 529 NSCLC
SW-620 colon = tested on: SW-620 colon
HOP-62 NSCLC = tested on: HOP-62 NSCLC
NCI-H522 lung = tested on: NCI-H522 lung
SNB-19 CNS = tested on: SNB-19 CNS
MOLT-4 leukemia = tested on: MOLT-4 leukemia
KM12 colon = tested on: KM12 colon
HL-60(TB) leukemia = tested on: HL-60(TB) leukemia
SNB-78 CNS = tested on: SNB-78 CNS
BT-549 breast = tested on: BT-549 breast
MCF7 breast = tested on: MCF7 breast
MDA-N = tested on: MDA-N
T-47D breast = tested on: T-47D breast
OVCAR-5 ovarian = tested on: OVCAR-5 ovarian
MDA-MB-231 breast = tested on: MDA-MB-231 breast
CAKI-1 renal = tested on: CAKI-1 renal
PC-3 prostate = tested on: PC-3 prostate
IGROV1 ovarian = tested on: IGROV1 ovarian
DU-145 prostate = tested on: DU-145 prostate
MDA-MB-435 = tested on: MDA-MB-435
A498 renal = tested on: A498 renal
OVCAR-3 ovarian = tested on: OVCAR-3 ovarian
HCC-2998 colon = tested on: HCC-2998 colon
SF-539 CNS = tested on: SF-539 CNS
NCI/ADR-RES ovarian = tested on: NCI/ADR-RES ovarian
HOP-92 NSCLC = tested on: HOP-92 NSCLC
HS 578T breast = tested on: HS 578T breast

Measured: TGI

O=C(CSc1nnc(-c2ccc(N=Cc3ccc(Cl)cc3)cc2)o1)Nc1cccc([N+](=O)[O-])c1
not listed: BT-549 breast | MCF7 breast | MDA-N | T-47D breast | OVCAR-5 ovarian | MDA-MB-231 breast | CAKI-1 renal | PC-3 prostate | IGROV1 ovarian | DU-145 prostate | MDA-MB-435 | A498 renal | OVCAR-3 ovarian | HCC-2998 colon | SF-539 CNS | NCI/ADR-RES ovarian | HOP-92 NSCLC | HS 578T breast
> 100 µM: all other assays above

NCCN(CCN)/[N+]([O-])=N/O
not listed: M19-MEL melanoma | KM20L2 colon | HOP-18 NSCLC | DMS 114 small cell lung | DMS 273 small cell lung | LXFL 529 NSCLC | SNB-78 CNS
> 100 µM: all other assays above

— PubChem BioAssay (NCI)
